Patent US20240158385A1, “NOVEL COMPOUNDS” (Cerevance, Inc., priority 2021, published 2024)
Read-outs that look alike come from different tables or passages of the source.

Assays:
[1] = tested on: IL-1β, mouse primary microglia; test: Inflammasome assay in primary mouse postnatal microglia using LPS/0 mM extracellular K+ (IL-1β levels); format: cell-based; details: 100 ng/mL LPS 3.5 hours, compound 30 minutes, then K+ free buffer 2 hours, IL-1β by MesoScale Discovery
Experimental: Newly shaken mouse microglia cells were added to a 96-well plate and left to adhere overnight. After this time, 100 ng/mL LPS was added to each well and incubated at 37° C. for 3.5 hours, at which point compound addition was undertaken and plates incubated at 37° C. for an additional 30 minutes. After this time, the medium in each well was removed and replaced with K^+ free buffer and the plates then incubated for an additional 2 hours at 37° C. Measurement of IL-1βlevels in the sample wells was undertaken using MesoScale Discovery™ MESO QuickPlex SQ 120 and […] from mouse IL-1β DuoSet ELISA kit (R&D System, DY401).

human KCNK13 = target: T1, human KCNK13 (Homo sapiens, UniProt Q9HB14); test: KCNK13 antagonist activity, thallium (Tl+) flux FLIPR assay; format: cell-based
T1 construct: expressed in transfected cells
T1 sequence (Q9HB14 1-408): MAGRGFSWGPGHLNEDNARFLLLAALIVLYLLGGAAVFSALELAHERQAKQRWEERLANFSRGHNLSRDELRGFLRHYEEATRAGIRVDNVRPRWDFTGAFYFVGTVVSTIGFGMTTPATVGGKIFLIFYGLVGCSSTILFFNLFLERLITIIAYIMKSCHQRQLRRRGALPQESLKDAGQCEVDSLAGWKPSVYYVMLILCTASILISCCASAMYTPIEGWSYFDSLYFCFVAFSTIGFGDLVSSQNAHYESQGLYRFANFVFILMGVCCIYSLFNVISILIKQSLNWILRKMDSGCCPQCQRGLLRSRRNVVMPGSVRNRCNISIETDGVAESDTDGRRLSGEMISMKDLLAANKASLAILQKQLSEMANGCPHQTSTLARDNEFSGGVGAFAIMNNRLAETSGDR
In short: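 HEK 293 cells stably expressing human KCNK13 loaded with Tl+-sensitive dye for 1 h at room temperature. Compounds (10-point half-log curves) preincubated 15 min before thallium sulfate stimulus, fluorescence tracked by FLIPR. IC50 from ten-point curves, each point the mean of two wells.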

[2] = HEK 293 cells stably expressing human KCNK13, Tl+ sensitive dye, FLIPR, compounds 15 minutes prior to thallium sulfate, 10 point half log curves from 10 PM, read-out: hKCNK13 IC50

| SMILES | IC50 [1] [nM] | IC50 (human KCNK13; [2]) [nM] | IC50 (human KCNK13) [nM] |
| --- | --- | --- | --- |
| Nc1nonc1-c1nc2cccc(F)c2n1Cc1cccnc1 (single isomer, unassigned) [Example 86, 4-[7-fluoro-1-(pyridin-3-ylmethyl)benzimidazol-2-yl]-1,2,5-oxadiazol-3-amine] | ≤ 50 | < 50 |  |
| Nc1nonc1-c1nc2cccc(F)c2n1Cc1ccncc1 (single isomer, unassigned) [Example 120, 4-[7-fluoro-1-(pyridin-4-ylmethyl)benzimidazol-2-yl]-1,2,5-oxadiazol-3-amine] | ≤ 50 | < 50 |  |
| Nc1nonc1-c1nc2ccccc2n1Cc1cncnc1 [Example 21, 4-[1-(pyrimidin-5-ylmethyl)benzimidazol-2-yl]-1,2,5-oxadiazol-3-amine] | ≤ 100 |  | < 50 |
| Nc1nonc1-c1nc2cccc(F)c2n1Cc1cnccn1 [Example 32, 4-[7-fluoro-1-(pyrazin-2-ylmethyl)benzimidazol-2-yl]-1,2,5-oxadiazol-3-amine] | ≤ 200 | < 50 |  |
| Cc1nonc1-c1nc2cccc(F)c2n1Cc1cncnc1 [Example 49, 3-[7-fluoro-1-(pyrimidin-5-ylmethyl)benzimidazol-2-yl]-4-methyl-1,2,5-oxadiazole] | ≤ 50 | < 100 |  |
| Cc1nonc1-c1nc2ccccc2n1Cc1cncnc1 [Example 57, 3-methyl-4-[1-(pyrimidin-5-ylmethyl)benzimidazol-2-yl]-1,2,5-oxadiazole] | ≤ 200 | < 100 |  |
| Nc1nonc1-c1nc2ccccc2n1Cc1ccncc1 [Example 71, 4-[1-(pyridin-4-ylmethyl)benzimidazol-2-yl]-1,2,5-oxadiazol-3-amine] | ≤ 200 | < 100 |  |
